Values joined by “and” are separate entries in the source; they are usually repeats but may differ in a detail not shown here. Identical values can stand only once. Like-named read-outs stand apart in the source and are kept apart here.
Biological target: hCB2 (Homo sapiens, UniProt P34972)
Test: bioSensAll ebBRET signaling profiling, hCB2
Assay type: cell-based
Set-up: host or cells: HEK293SL cells, transient PEI transfection
Details: for RE, relative efficacy: vs CP-55,940; for G13 hCB2 / G15 hCB2 / Gq hCB2 / Gs hCB2: raw signal; for EC50: read-out: EC50 [95% CI]; for Emax: normalized to CP-55,940
[1] = Log [Compound] (M) not printed (line after -13)

Sequence of hCB2 (P34972 whole entry): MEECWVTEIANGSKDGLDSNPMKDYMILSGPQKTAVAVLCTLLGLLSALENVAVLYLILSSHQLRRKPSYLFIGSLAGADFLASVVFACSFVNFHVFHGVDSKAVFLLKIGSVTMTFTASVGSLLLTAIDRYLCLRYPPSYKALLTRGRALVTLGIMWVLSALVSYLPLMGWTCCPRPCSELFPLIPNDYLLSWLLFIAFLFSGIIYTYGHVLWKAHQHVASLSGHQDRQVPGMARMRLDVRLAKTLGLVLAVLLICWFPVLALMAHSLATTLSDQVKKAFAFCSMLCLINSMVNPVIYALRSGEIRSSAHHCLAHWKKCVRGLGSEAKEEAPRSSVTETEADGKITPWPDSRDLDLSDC

## COC(=O)C(C)(NC(=O)c1cc(C)n(-c2cccc(C(F)(F)F)c2)n1)c1cccs1 (stereo not drawn) [‘4042]
Log [Compound] (M) -4.22186
  Barr2+GRK2 hCB2: 36.6847 and 35.0372
  Gi1 hCB2: 75.671 and 56.3726
  Gi2 hCB2: 69.4439
  GoB hCB2: 52.0294 and 57.6529
  Gz hCB2: 65.903
  G13 hCB2: 669
  G15 hCB2: 923
  Gq hCB2: 1840
  Gs hCB2: 9076
Log [Compound] (M) -4.63927
  Barr2+GRK2 hCB2: 30.1112 and 31.9388
  Gi1 hCB2: 84.2769 and 74.9725
  Gi2 hCB2: 71.4813
  GoB hCB2: 57.2898 and 66.4321
  Gz hCB2: 53.7774
  G13 hCB2: 511
  G15 hCB2: 896
  Gq hCB2: 1838
  Gs hCB2: 9146
Log [Compound] (M) -5.05788
  Barr2+GRK2 hCB2: 34.1076 and 21.894
  Gi1 hCB2: 83.7031 and 72.7366
  Gi2 hCB2: 65.5506
  GoB hCB2: 61.864 and 59.6527
  Gz hCB2: 52.6347
  G13 hCB2: 372
  G15 hCB2: 871
  Gq hCB2: 1851
  Gs hCB2: 9765
Log [Compound] (M) -5.47381
  Barr2+GRK2 hCB2: 32.3148 and 21.944
  Gi1 hCB2: 87.9518 and 88.1124
  Gi2 hCB2: 70.9363
  GoB hCB2: 59.0585 and 62.0173
  Gz hCB2: 46.8061
  G13 hCB2: 454
  G15 hCB2: 873
  Gq hCB2: 1786
  Gs hCB2: 9415
Log [Compound] (M) -5.89285
  Barr2+GRK2 hCB2: 35.0413 and 26.4416
  Gi1 hCB2: 81.7804 and 90.251
  Gi2 hCB2: 70.7805
  GoB hCB2: 65.2185 and 62.9481
  Gz hCB2: 53.1772
  G13 hCB2: 417
  G15 hCB2: 919
  Gq hCB2: 1814
  Gs hCB2: 9299
Log [Compound] (M) -6.31878
  Barr2+GRK2 hCB2: 26.1148 and 22.8935
  Gi1 hCB2: 87.5021 and 87.0754
  Gi2 hCB2: 73.3371
  GoB hCB2: 60.7357 and 59.0239
  Gz hCB2: 50.6781
  G13 hCB2: 379
  G15 hCB2: 911
  Gq hCB2: 1840
  Gs hCB2: 9425
Log [Compound] (M) -6.72585
  Barr2+GRK2 hCB2: 32.0907 and 32.9383
  Gi1 hCB2: 83.1759 and 83.592
  Gi2 hCB2: 72.2081
  GoB hCB2: 57.8234 and 61.5268
  Gz hCB2: 54.4186
  G13 hCB2: 366
  G15 hCB2: 869
  Gq hCB2: 1780
  Gs hCB2: 9320
Log [Compound] (M) -7.14267
  Barr2+GRK2 hCB2: 30.5594 and 25.1923
  Gi1 hCB2: 86.1686 and 79.3795
  Gi2 hCB2: 59.0489
  GoB hCB2: 60.3698 and 62.0676
  Gz hCB2: 81.8754 and 46.0416
  G13 hCB2: 378
  G15 hCB2: 865
  Gq hCB2: 1798
  Gs hCB2: 9628
Log [Compound] (M) -7.55284
  Barr2+GRK2 hCB2: 24.7329 and 21.1444
  Gi1 hCB2: 76.7565 and 80.3516
  Gi2 hCB2: 59.4123
  GoB hCB2: 49.2391 and 57.2756
  Gz hCB2: 76.5196 and 38.421
  G13 hCB2: 351
  G15 hCB2: 908
  Gq hCB2: 1838
  Gs hCB2: 9429
Log [Compound] (M) -8
  Barr2+GRK2 hCB2: 20.8112 and 19.8451
  Gi1 hCB2: 58.7695 and 64.9921
  Gi2 hCB2: 62.9552
  GoB hCB2: 43.3382 and 49.9051
  G13 hCB2: 336
  G15 hCB2: 870
  Gq hCB2: 1691
  Gs hCB2: 9233
Log [Compound] (M) -8.22186
  Barr2+GRK2 hCB2: 15.2835 and 10.4
  Gi1 hCB2: 52.319 and 51.5606
  Gi2 hCB2: 51.7297
  GoB hCB2: 36.4463 and 41.3775
  Gz hCB2: 67.5634 and 41.7257
  G13 hCB2: 337
  G15 hCB2: 953
  Gq hCB2: 1914
  Gs hCB2: 10090
Log [Compound] (M) -8.39794
  Barr2+GRK2 hCB2: 10.0546 and 6.052
  Gi1 hCB2: 41.3253 and 50.1024
  Gi2 hCB2: 43.6058
  GoB hCB2: 31.1707 and 34.2586
  G13 hCB2: 386
  G15 hCB2: 901
  Gq hCB2: 1867
  Gs hCB2: 9624
Log [Compound] (M) -8.68787
  Barr2+GRK2 hCB2: 5.6847 and 8.001
  Gi1 hCB2: 42.5968 and 33.949
  Gi2 hCB2: 35.8583
  G13 hCB2: 351
  G15 hCB2: 876
  Gq hCB2: 1937
  Gs hCB2: 9194
Log [Compound] (M) -9.15521
  Gi2 hCB2: 25.8008
  G13 hCB2: 367
  G15 hCB2: 910
  Gq hCB2: 1811
  Gs hCB2: 9196
Log [Compound] (M) -9.61989
  Gi2 hCB2: -4.618
  G13 hCB2: 345
  G15 hCB2: 880
  Gq hCB2: 1785
  Gs hCB2: 9153
Log [Compound] (M) -10.0969
  Gi2 hCB2: -5.163
  G13 hCB2: 341
  G15 hCB2: 856
  Gq hCB2: 1790
  Gs hCB2: 9401
Log [Compound] (M) -10.5529
  Gi2 hCB2: -5.566
  G13 hCB2: 309
  G15 hCB2: 917
  Gq hCB2: 1878
  Gs hCB2: 9283
Log [Compound] (M) -11.0177
  Gi2 hCB2: -11.8727
  G13 hCB2: 377
  G15 hCB2: 837
  Gq hCB2: 1802
  Gs hCB2: 9354
Log [Compound] (M) -11.4949
  Gi2 hCB2: -13.975
  G13 hCB2: 335
  G15 hCB2: 822
  Gq hCB2: 1866
  Gs hCB2: 8977
Log [Compound] (M) -11.9208
  Gi2 hCB2: -11.7429
  G13 hCB2: 361
  G15 hCB2: 904
  Gq hCB2: 1780
  Gs hCB2: 8976
Log [Compound] (M) -12.3979
  Gi2 hCB2: -12.3529
  G13 hCB2: 355
  G15 hCB2: 851
  Gq hCB2: 1758
  Gs hCB2: 8977
Log [Compound] (M) -12.8861
  Gi2 hCB2: -13.7415
  G13 hCB2: 299
  G15 hCB2: 809
  Gq hCB2: 1793
  Gs hCB2: 9246
Log [Compound] (M) -13
  Gi2 hCB2: -11.7689
  G13 hCB2: 267 and 381
  G15 hCB2: 851 and 879
  Gq hCB2: 1807 and 1732
  Gs hCB2: 9386 and 9439
[1]
  Barr2+GRK2 hCB2: 1.105
  Gi1 hCB2: -2.635
  GoB hCB2: -0.7449
  Gz hCB2: 1.526
hCB2 Barr2 + GRK2
  pEC50 [95% CI]: 8.26 [8.1 – 8.5]
  EC50: 5.5 nM
hCB2 Gi1
  pEC50 [95% CI]: 8.58 [8.5 – 8.7]
  RE, relative efficacy: 0.63
  EC50: 2.7 nM
hCB2 Gi2
  pEC50 [95% CI]: 8.90 [8.8 – 9.0]
  RE, relative efficacy: 0.59
  EC50: 1.3 nM
hCB2 GoB
  pEC50 [95% CI]: 8.60 [8.5 – 8.7]
  RE, relative efficacy: 0.47
  EC50: 2.5 nM
hCB2 Gz
  pEC50 [95% CI]: 8.87 [8.5 – 9.3]
  RE, relative efficacy: 0.38
hCB2 ßarr2+GRK2
  RE, relative efficacy: 0.82
read-out: Emax [95% CI], hCB2 Barr2 + GRK2
  Emax: 33%
read-out: Emax [95% CI], hCB2 Gi1
  Emax: 82%
read-out: Emax [95% CI], hCB2 Gi2
  Emax: 70%
read-out: Emax [95% CI], hCB2 GoB
  Emax: 61%
read-out: Emax [95% CI], hCB2 Gz
  Emax: 56%

From PMC11882969 (Nature Communications, 2025)
